Reference: US8293979B2, “Weed controller metabolism proteins, genes, thereof and use of the same” (Sumitomo Chemical Company, Limited, priority 2001, dated 2012)

Experiments:
[1] = test system: present invention protein (A17); experiment: Detection of the ability to convert compound (II) to compound (III), E. coli pKSN608F extract; type: in vitro ADME, Streptomyces griseus ATCC 10137; details: 3 ppm of compound (II) labeled with 14C, components A, B, 10 minutes at 30° C.
Protocol: Reaction solutions of 30 μl were prepared and maintained for 10 minutes at 30° C. The reaction solutions consisted of a 0.1M potassium phosphate buffer (pH7.0) containing 3 ppm of compound (II) labeled with ^14C, 2 mM of β-NADPH (hereinafter, referred to as “component A”) (Oriental Yeast Company), 2 mg/ml of a ferredoxin derived from spinach (hereinafter referred to as “component B”) (Sigma Company), 0.1 U/ml of ferredoxin reductase (hereinafter, referred to as “component C”) (Sigma Company) and 23 μl of the supernatant fraction recovered in Example 32(2). Similarly to Example 4(3), the reaction solutions after the maintenance were extracted with ethyl acetate and the extracted layers were TLC analyzed. […] A spot corresponding to compound (III) was detected from the reaction solution containing E. coli pKSN849AF extract. In contrast, such a spot was not detected from the reaction solution containing E. coli pKSN2 extract.
Similarly to Example 32(3), reaction solutions of 30 μl were prepared and maintained for 10 minutes at 30° C. […] The reaction solutions after the maintenance were extracted with ethyl acetate and the extracted layers were TLC analyzed. […] A spot corresponding to compound (III) was detected from the reaction solution containing E. coli pKSN608F extract. In contrast, such a spot was not detected from the reaction solution containing E. coli pKSN2 extract.

[2] = test system: Streptomyces roseochromogenes ATCC13400; experiment: Metabolism of compound (II) by a microorganism; type: in vitro ADME; details: compound (II) at 100 ppm, 7 to 8 days at 30° C.
Protocol: (§1) The HPLC for content analysis in Examples 1, 41 and 42 and fraction purification of the compound was conducted under the conditions shown below.
(§2) The various microorganisms shown in Tables 1 and 2 were grown in ISP2 agar medium (1.0% (w/v) malt extract, 0.4% (w/v) yeast extract, 0.4% (w/v) glucose, 2.0% (w/v) agar, pH 7.3). A “loopful” of the each microorganism was added to TGY medium (0.5% (w/v) tryptone, 0.5% (w/v) yeast extract, 0.1% (w/v) glucose, 0.01% (w/v) KH2PO4, pH 7.0) and incubated with shaking at 30° C. for 2 to 4 days. One-tenth milliliter (0.1 ml) of the obtained culture was incubated with shaking in 3 ml of sporulation medium (0.1% (w/v) of meat extract, 0.2% (w/v) tryptose, 1% glucose, pH 7.1) containing compound (II) at 100 ppm for 7 to 8 days at 30° C. Fifty microliters (50 μl) of 2N HCl was added to the resulting culture and this was extracted with 3 ml of ethyl acetate. The obtained ethyl acetate layer was analyzed on the HPLC. The concentration of compound (II) was reduced (column retention time of 23.9 minutes) and new peaks were detected for compounds at retention times of 21.6 minutes and 22.2 minutes (each referred to as metabolite (I) and metabolite (II)).

[3] = test system: Streptomyces testaceus ATCC21469; experiment: Metabolism of compound (II) by a microorganism; type: in vitro ADME; details: compound (II) at 100 ppm, 7 to 8 days at 30° C.
Protocol: as §1, §2

[4] = test system: Streptomyces kasugaensis IFO13851; experiment: Metabolism of compound (II) by a microorganism; type: in vitro ADME; details: compound (II) at 100 ppm, 7 to 8 days at 30° C.
Protocol: as §1, §2

[5] = test system: Streptomyces thermocoerulescens IFO14273t; experiment: Metabolism of compound (II) by a microorganism; type: in vitro ADME; details: compound (II) at 100 ppm, 7 to 8 days at 30° C.
Protocol: as §1, §2

[6] = test system: Streptomyces ornatus IFO13069t; experiment: Metabolism of compound (II) by a microorganism; type: in vitro ADME; details: compound (II) at 100 ppm, 7 to 8 days at 30° C.
Protocol: as §1, §2

[7] = test system: Saccharopolyspora taberi JCM9383T; experiment: Metabolism of compound (II) by a microorganism; type: in vitro ADME; details: compound (II) at 100 ppm, 7 to 8 days at 30° C.
Protocol: as §1, §2

[8] = test system: Streptomyces achromogenes IFO12735; experiment: Metabolism of compound (II) by a microorganism; type: in vitro ADME; details: compound (II) at 100 ppm, 7 to 8 days at 30° C.
Protocol: as §1, §2

[9] = test system: Streptomyces griseus ATCC12475; experiment: Metabolism of compound (II) by a microorganism; type: in vitro ADME; details: compound (II) at 100 ppm, 7 to 8 days at 30° C.
Protocol: as §1, §2

[10] = test system: Streptomyces scabies IFO3111; experiment: Metabolism of compound (II) by a microorganism; type: in vitro ADME; details: compound (II) at 100 ppm, 7 to 8 days at 30° C.
Protocol: as §1, §2

[11] = test system: Streptomyces griseolus ATCC11796; experiment: Metabolism of compound (II) by a microorganism; type: in vitro ADME; details: compound (II) at 100 ppm, 7 to 8 days at 30° C.
Protocol: as §1, §2

[12] = test system: Streptomyces hachijoensis IFO12782; experiment: Metabolism of compound (II) by a microorganism; type: in vitro ADME; details: compound (II) at 100 ppm, 7 to 8 days at 30° C.
Protocol: as §1, §2

[13] = test system: Streptomyces griseus ATCC11429; experiment: Metabolism of compound (II) by a microorganism; type: in vitro ADME; details: compound (II) at 100 ppm, 7 to 8 days at 30° C.
Protocol: as §1, §2

[14] = test system: Streptomyces rimosus ATCC10970; experiment: Metabolism of compound (II) by a microorganism; type: in vitro ADME; details: compound (II) at 100 ppm, 7 to 8 days at 30° C.
Protocol: as §1, §2

[15] = test system: Streptomyces argenteolus var. toyon ATCC21468t; experiment: Metabolism of compound (II) by a microorganism; type: in vitro ADME; details: compound (II) at 100 ppm, 7 to 8 days at 30° C.
Protocol: as §1, §2

[16] = test system: Streptomyces lavendulae ATCC11924; experiment: Metabolism of compound (II) by a microorganism; type: in vitro ADME; details: compound (II) at 100 ppm, 7 to 8 days at 30° C.
Protocol: as §1, §2

[17] = test system: Streptomyces lydicus IFO13058; experiment: Metabolism of compound (II) by a microorganism; type: in vitro ADME; details: compound (II) at 100 ppm, 7 to 8 days at 30° C.
Protocol: as §1, §2

[18] = test system: Streptomyces erythreus ATCC11635; experiment: Metabolism of compound (II) by a microorganism; type: in vitro ADME; details: compound (II) at 100 ppm, 7 to 8 days at 30° C.
Protocol: as §1, §2

[19] = test system: Streptomyces griseochromogenes ATCC14511; experiment: Metabolism of compound (II) by a microorganism; type: in vitro ADME; details: compound (II) at 100 ppm, 7 to 8 days at 30° C.
Protocol: as §1, §2

[20] = test system: Streptomyces kasugaensis ATCC15714; experiment: Metabolism of compound (II) by a microorganism; type: in vitro ADME; details: compound (II) at 100 ppm, 7 to 8 days at 30° C.
Protocol: as §1, §2

[21] = test system: Streptomyces chartreusis ATCC21901; experiment: Metabolism of compound (II) by a microorganism; type: in vitro ADME; details: compound (II) at 100 ppm, 7 to 8 days at 30° C.
Protocol: as §1, §2

[22] = test system: Streptomyces cacaoiasoensis IFO13813; experiment: Metabolism of compound (II) by a microorganism; type: in vitro ADME; details: compound (II) at 100 ppm, 7 to 8 days at 30° C.
Protocol: as §1, §2

[23] = test system: Streptomyces catenulae IFO12848; experiment: Metabolism of compound (II) by a microorganism; type: in vitro ADME; details: compound (II) at 100 ppm, 7 to 8 days at 30° C.
Protocol: as §1, §2

[24] = test system: Streptomyces griseofuscus IFO12870t; experiment: Metabolism of compound (II) by a microorganism; type: in vitro ADME; details: compound (II) at 100 ppm, 7 to 8 days at 30° C.
Protocol: as §1, §2

[25] = test system: Streptomyces fimicarius ATCC21900; experiment: Metabolism of compound (II) by a microorganism; type: in vitro ADME; details: compound (II) at 100 ppm, 7 to 8 days at 30° C.
Protocol: as §1, §2

[26] = test system: Streptomyces sp. SANK62585; experiment: Metabolism of compound (II) by a microorganism; type: in vitro ADME; details: compound (II) at 100 ppm, 7 to 8 days at 30° C.
Protocol: as §1, §2

C[C@@H](Oc1cc(-n2c(=O)cc(C(F)(F)F)n(C)c2=O)c(F)cc1Cl)C(=O)O [compound (II)]
spot corresponding to compound (III) labeled with 14C (TLC) [1]: detected | concentration of compound (II) [2]: 81.9 ppm | concentration of compound (II) [3]: 18.4 ppm | concentration of compound (II) [4]: 66.3 ppm | concentration of compound (II) [5]: 51.7 ppm | concentration of compound (II) [6]: 65.3 ppm | concentration of compound (II) [7]: 82.9 ppm | concentration of compound (II) [8]: 0.0 ppm | concentration of compound (II) [9]: 51.1 ppm | concentration of compound (II) [10]: 88.3 ppm | concentration of compound (II) [11]: 0 ppm | concentration of compound (II) [12]: 83.9 ppm | concentration of compound (II) [13]: 30.3 ppm | concentration of compound (II) [14]: 70.9 ppm | concentration of compound (II) [15]: 90.1 ppm | concentration of compound (II) [16]: 89.6 ppm | concentration of compound (II) [17]: 62.0 ppm | concentration of compound (II) [18]: 54.6 ppm | concentration of compound (II) [19]: 53.9 ppm | concentration of compound (II) [20]: 92.4 ppm | concentration of compound (II) [21]: 61.1 ppm | concentration of compound (II) [22]: 77.8 ppm | concentration of compound (II) [23]: 85.3 ppm | concentration of compound (II) [24]: 49.5 ppm | concentration of compound (II) [25]: 46.5 ppm | concentration of compound (II) [26]: 54.6 ppm
